“Also recorded” adds a separate entry of the source.
Assays:
[1] = system: insulin antibodies; assay: Insulin antibodies (IAA) in serum of immunized NOD mice, competitive radiobinding assay; assay type: in vivo, mouse; conditions: NOD mice immunized subcutaneously in IFA
Protocol: Littermates were divided into 3 groups. […] Complete Freund's adjuvant was avoided because of its known protective effect in NOD mice (Qin et al. [1993] J. Immunol. 150:2072-2080). […] Treatments started at 4 weeks of age and subsequent immunizations were administered at ages 12, 16, and 22 weeks. […] In addition, 2 new treatments were assessed. […] As in the first study, immunizations were given in IFA commencing at 4 weeks of age, but subsequent injections were given at 8 week intervals. In a third NOD mouse experiment, controlled by 18, 0.9% saline+IFA-treated littermates (10 female and 8 male), 18 mice received 250 μg BSA (Sigma) in IFA (10 female and 8 male). A third group of 21 littermates was treated with 100 μg of the 17 amino acid component peptide of BSA called ABBOS in IFA (11 female and 10 male).
(§1) Venous blood samples, obtained from the tail vein or retro-orbital sinus were tested serially for glucose and IAA. Blood glucose was determined using a Chemstrip bG (Boehringer Mannheim) read visually as verified by a reflectance meter. Diabetes was diagnosed when the whole blood glucose level was greater than 240 mg/dl (13.3 mmol/L). A liquid phase competitive radiobinding assay using 1:3 diluted mouse sera was used to determine IAA titer (Vardi et al. [1987] Diabetes 36:1286-1291). Normal murine levels, established from a survey of 48 mice from six different strains that were not susceptible to spontaneous diabetes were considered to be below 180 nU/ml (3 standard deviations above mean).

[2] = system: irradiated NOD recipients; assay: Adoptive co-transfer of splenocytes from immunized and acutely diabetic NOD mice to irradiated NOD recipients; assay type: in vivo, mouse; conditions: for Transfer of protection by splenocytes of immunized mice (in words): irradiated NOD recipients, adoptive co-transfer
Source text: At age 10 weeks, splenocyte pools were obtained from these mice, each pool comprising cells from 3 similarly treated animals. These "modulator" splenocytes were mixed with an equal number of pooled splenocytes that had been harvested from 6 untreated, acutely diabetic NOD mice. Six hours after a 700 Rad dose of γ-irradiation, 10 previously untreated, non-diabetic, 10 week old male NOD mice received an intravenous infusion containing a total of 40×10^6 cells from one of the mixtures, i.e. 3 diluent-, 3 A chain-, and 4 B chain-treated animals.
as §1
(§2) Non-diabetic mice in the subcutaneous immunization protocol that survived to 40 weeks were sacrificed at that age. Their pancreata were removed, fixed in 10% formalin and stained for light microscopic examination with hematoxylin and eosin. The slides were coded and a consensus insulitis score was determined by 3 examiners before the code was broken. The presence of insulitis was scored using a previously described dual scale that assesses both the severity of immune infiltration and the cytoarchitectural disruption. Finally, the pancreata from the modulator cell donors in the adoptive transfer studies were similarly reviewed at 10 weeks of age. Pancreata from 8 of 10 recipients (only 2 of 4 mice receiving B chain modulator cells were sacrificed) were analyzed 20 days after their adoptive transfer.
The method of Kaplan and Meier (Kaplan and Meier [1958] J. Am. Stat. Assoc. 53:457-481) was used to construct life tables and the logrank Chi-square statistic was used to compare them (Mantel, N. (1966) Cancer Chemother. Rep. 50:163-170). A Student t-test or one-way ANOVA was used when appropriate to compare means. Fisher's exact test was applied to compare frequencies in the adoptive transfer studies. P-values are 2-sided.

[3] = system: NOD mice; assay: Subcutaneous immunization in IFA, development of diabetes in NOD mice; assay type: in vivo, mouse; conditions: for Protective effect against diabetes (in words): subcutaneous immunization in IFA; for IDD rate (frequency of diabetes): subcutaneous immunization in IFA from 4 weeks of age, FIG. 1
Source text: NOD/Uf mice (Winter [1990] Diabetes 39:975-982) were bred and maintained in the temperature and light controlled facility of the Department of Pathology at the University of Florida. After weaning at 3-4 weeks of age, littermates were housed in groups of no more than 6 per cage. A soy and […]-based chow (Harlan, Madison, Wis.) and water were available ad libitum. Typical diabetes rates in the NOD/Uf colony at 40 weeks of age are near 90% in females and 30% in males. Littermates were divided into 3 groups. […] Complete Freund's adjuvant was avoided because of its known protective effect in NOD mice (Qin et al. [1993] J. Immunol. 150:2072-2080). […] Treatments started at 4 weeks of age and subsequent immunizations were administered at ages 12, 16, and 22 weeks. […] In addition, 2 new treatments were assessed. […] As in the first study, immunizations were given in IFA commencing at 4 weeks of age, but subsequent injections were given at 8 week intervals. In a third NOD mouse experiment, controlled by 18, 0.9% saline+IFA-treated littermates (10 female and 8 male), 18 mice received 250 μg BSA (Sigma) in IFA (10 female and 8 male). A third group of 21 littermates was treated with 100 μg of the 17 amino acid component peptide of BSA called ABBOS in IFA (11 female and 10 male). This peptide has been proposed as an environmental molecular mimic of an endogenous islet protein. Venous blood samples, obtained from the tail vein or retro-orbital sinus were tested serially for glucose and IAA. Blood glucose was determined using a Chemstrip bG (Boehringer Mannheim) read visually as verified by a reflectance meter. Diabetes was diagnosed when the whole blood glucose level was greater than 240 mg/dl (13.3 mmol/L). A liquid phase competitive radiobinding assay using 1:3 diluted mouse sera was used to determine IAA […] al. [1987] Diabetes 36:1286-1291). Normal murine levels, established from a survey of 48 mice from six different strains that were not susceptible to spontaneous diabetes were considered to be below 180 nU/ml (3 standard deviations above mean). The method of Kaplan and Meier (Kaplan and Meier [1958] J. Am. Stat. Assoc. 53:457-481) was used to construct life tables and the logrank Chi-square statistic was used to compare them (Mantel, N. (1966) Cancer Chemother. Rep. 50:163-170). A Student t-test or one-way ANOVA was used when appropriate to compare means. Fisher's exact test was applied to compare frequencies in the adoptive transfer studies.

[4] = system: NOD mice; assay: Insulitis score / pancreatic histology of immunized NOD mice; assay type: in vivo, mouse; conditions: NOD mice immunized subcutaneously in IFA; non-diabetic survivors at 40 weeks
Protocol: as §2

[5] = system: NOD mice; conditions: cited from earlier work
[6] = irradiated male NOD recipients of splenocytes from treated donors plus diabetic donors, diabetic/total

| Substance | Insulin antibody level / insulin binding activity in serum (in words) [1] | Number of Diabetic Mice, Day 10 [2, 6] | Number of Diabetic Mice, Day 20 [2, 6] | Protective effect against diabetes (in words) [3] | IDD rate (frequency of diabetes) [3] | Insulitis / pancreatic histology (in words) [4] | other results |
| --- | --- | --- | --- | --- | --- | --- | --- |
| A chain: recombinant human A chain insulin, given in IFA | high insulin binding activity in serum | 0/3 | 3/3 | had no protective effects | 53% | – | Insulin antibody level / insulin binding activity in serum (in words) ([1]; listed as A): stimulated high levels of insulin antibodies; Protective effect against diabetes (in words) ([3]; listed as A chain insulin): did not however alter the course of IDD |
| B chain: recombinant human B chain insulin, given in IFA | stimulated high levels of insulin antibodies; also recorded: high insulin binding activity in serum | 0/4 | 0/4 | resulted in protection from diabetes; also recorded: protection conferred by subcutaneous insulin immunization was duplicated; also recorded: all of the protection was localized to the B chain | 16% | neither insulin nor B chain immunizations diminished insulitis | Time for which diabetes was prevented after co-transfer ([2]; co-transfer of splenocytes from treated and acutely diabetic mice, p=0.03): at least 75 days; Transfer of protection by splenocytes of immunized mice (in words) [2]: able to confer the protective effect on irradiated NOD recipients; Transfer of protection by splenocytes of immunized mice (in words) ([2]; listed as B chain of insulin): able to protect irradiated, recipient mice; Number of Diabetic Mice, Day 75 [2, 6]: 0/2; Protective effect against diabetes (in words) ([3]; listed as B chain of insulin): reproduced the protective effect of insulin; also recorded: excellent protection against IDD; Protective effect against diabetes (in words) ([3]; listed as insulin B chain): protection equal or superior to that conferred by intact insulin |
| bovine serum albumin [BSA, reference compound] | – | – | – | had no protective effects | – | – | – |
| glutamic acid decarboxylase [human GAD65] | – | – | – | onset of diabetes has been delayed | – | – | – |
| insulin: purified porcine NPH insulin (first study) or recombinant human NPH insulin (second study, FIG. 1), given subcutaneously in incomplete Freund's adjuvant [reference compound] | – | – | – | significantly reduced the incidence of diabetes; also recorded: strong protection for diabetes was achieved; also recorded: significantly reduce the incidence of IDD; also recorded: excellent protection against IDD | under 13% | incidence and severity of insulitis were little affected, or actually increased; also recorded: not significantly reduced; also recorded: neither insulin nor B chain immunizations diminished insulitis | Protection from hyperglycemia and insulitis (in words) ([5]; extended prophylactic course of daily subcutaneous injections, NOD mice (Atkinson et al. 1990)): protected NOD mice from both hyperglycemia and islet infiltration by mononuclear leukocytes (insulitis); Response to oral insulin (in words) ([5]; oral, NOD mice (Zhang et al. 1991)): beneficial response |

— patent US5891435A, “Methods and compositions for delaying or preventing the onset of autoimmune disease” (Research Corporation Technologies, Inc., priority 1993, dated 1999)
